What is called Ki is a measure of affinity in units of concentration, obtained from inhibition or displacement. Low readings indicate tighter binding, high ones weaker binding. One may read the ED50 as the midpoint of the dose-response relation.

Bounds are passed on as bounds.

From ChEMBL document CHEMBL1137517, “Rational design, synthesis and evaluation of (6aR( *),11bS( *))-1-(4-fluorophenyl)-4-{7-[4-(4-fluorophenyl)-4-oxobutyl]1,2,3,4,6,6a,7,11b,12,12a(RS)-decahydropyrazino[2',1':6,1]pyrido[3,4-b]indol-2-yl}-butan-1-one as a potential neuroleptic agent” (Bioorg Med Chem, 2007) come the findings set out here.

One series deals with D(1A) dopamine receptor (Rattus norvegicus, UniProt P18901). Briefly: Displacement of [3H]SCH-23390 from dopamine D1 receptor in rat brain. It counts as tissue-based.
In series [1] the test system is Rattus norvegicus. Briefly: Blockade of conditioned avoidance response in ip dosed rat. Format: functional.
Series [2] deals with Rattus norvegicus. Briefly: Blockade of unconditioned avoidance response in ip dosed rat. It counts as functional.
A further series deals with D(2) dopamine receptor (Rattus norvegicus, UniProt P61169). Briefly: Displacement of [3H]spiperone from dopamine D2 receptor in rat brain. It counts as tissue-based. (In general: Displacement assays read how much labelled ligand stays bound in the presence of the test substance.)
Series [3] has as its target 5-hydroxytryptamine receptor 2A (Rattus norvegicus, UniProt P14842). Briefly: Displacement of [3H]ketanserin from 5HT2A receptor in rat brain. Format: tissue-based.
The subject of series [4] is Mus musculus. Briefly: Reduction of amphetamine-induced hyperactivity in ip dosed mouse. It counts as functional.
In series [5] the test system is Mus musculus. Briefly: Antagonism of amphetamine-induced toxicity in ip dosed mouse. It counts as functional.
Series [6] concerns Rattus norvegicus. Briefly: Blockade of secondary conditioned avoidance response in ip dosed rat. It counts as functional.
Series [7] has as its system Mus musculus. Briefly: Effect on locomotor activity in ip dosed mouse assessed as motor deficit by rota rod test. Format: functional. On the technique in general: Falling from the rotarod earlier than controls is read as motor impairment.
The subject of series [8] is Rattus norvegicus. Briefly: Cataleptic activity in ip dosed rat. It counts as ADME, organism-based. Conditions: in vivo.
For series [9], the species on record is Rattus norvegicus. Briefly: Ratio of ED50 for cataleptic activity in rat to ED50 for conditioned avoidance response in rat. Format: functional.

Chain of D(2) dopamine receptor (P61169 whole entry): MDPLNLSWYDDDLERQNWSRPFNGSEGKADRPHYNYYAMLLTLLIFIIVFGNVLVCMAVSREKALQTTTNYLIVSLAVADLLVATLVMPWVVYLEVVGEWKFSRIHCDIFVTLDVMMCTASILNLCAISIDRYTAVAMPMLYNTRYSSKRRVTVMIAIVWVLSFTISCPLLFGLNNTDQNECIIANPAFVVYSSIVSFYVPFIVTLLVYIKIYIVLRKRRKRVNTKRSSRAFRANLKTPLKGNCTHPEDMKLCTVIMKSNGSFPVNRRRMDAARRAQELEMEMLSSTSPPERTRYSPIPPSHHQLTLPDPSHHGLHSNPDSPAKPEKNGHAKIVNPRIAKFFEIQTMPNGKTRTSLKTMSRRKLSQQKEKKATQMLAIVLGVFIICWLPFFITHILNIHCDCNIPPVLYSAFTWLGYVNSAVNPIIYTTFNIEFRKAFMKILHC
Chain of 5-hydroxytryptamine receptor 2A (P14842 whole entry): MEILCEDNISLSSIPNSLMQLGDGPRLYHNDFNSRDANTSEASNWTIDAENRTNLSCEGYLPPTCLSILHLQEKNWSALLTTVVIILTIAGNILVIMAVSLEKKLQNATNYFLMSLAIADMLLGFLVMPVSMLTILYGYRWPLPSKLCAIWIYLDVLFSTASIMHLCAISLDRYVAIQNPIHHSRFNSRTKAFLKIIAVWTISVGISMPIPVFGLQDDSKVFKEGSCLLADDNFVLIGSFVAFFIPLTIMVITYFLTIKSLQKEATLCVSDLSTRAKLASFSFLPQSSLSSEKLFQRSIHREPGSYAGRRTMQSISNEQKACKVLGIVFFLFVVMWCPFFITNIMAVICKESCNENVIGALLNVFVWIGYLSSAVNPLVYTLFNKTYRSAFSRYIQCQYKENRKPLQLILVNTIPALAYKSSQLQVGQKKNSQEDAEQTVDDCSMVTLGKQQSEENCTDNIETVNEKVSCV
Chain of D(1A) dopamine receptor (P18901 whole entry): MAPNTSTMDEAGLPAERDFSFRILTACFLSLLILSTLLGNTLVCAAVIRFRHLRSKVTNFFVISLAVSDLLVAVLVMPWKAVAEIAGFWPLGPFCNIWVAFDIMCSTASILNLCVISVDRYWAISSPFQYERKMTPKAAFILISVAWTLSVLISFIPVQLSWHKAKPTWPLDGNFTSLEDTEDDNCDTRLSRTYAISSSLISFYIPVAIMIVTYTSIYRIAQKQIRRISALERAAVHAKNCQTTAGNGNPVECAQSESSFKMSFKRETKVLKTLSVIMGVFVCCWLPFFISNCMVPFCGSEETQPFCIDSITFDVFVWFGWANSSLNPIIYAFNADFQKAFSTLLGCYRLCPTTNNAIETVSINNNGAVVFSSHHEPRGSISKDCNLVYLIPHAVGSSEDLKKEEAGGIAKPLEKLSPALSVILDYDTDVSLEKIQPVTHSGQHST

With `O=C(CCCN1CCN2CC3C(CC2C1)c1ccccc1N3CCCC(=O)c1ccc(F)cc1)c1ccc(F)cc1` (stereo not drawn), the Ki on D(1A) dopamine receptor was 0.643 nM; on D(2) dopamine receptor, 2250 nM; in [3], 9.35 nM. Also, the ED50 with Rattus norvegicus [1] is 0.07 mg/kg; in the series on Rattus norvegicus [2] it was 5.6 mg/kg; with Mus musculus [4], 1.71 mg/kg; in the series with Mus musculus [5], 5.75 mg/kg; in the series on Rattus norvegicus [6], 0.01 mg/kg; in the series on Mus musculus [7], 4.33 mg/kg. The same compound displayed an ED50 in the series with Rattus norvegicus [8] of 0.88 mg/kg. The Ratio in the series filed under Rattus norvegicus [9] was found to be 12.6.
Turning to `O=C(CCCN1c2ccccc2C2CC3CNCCN3CC21)c1ccc(F)cc1` (mixture of isomers), the Ki (on D(2) dopamine receptor; in series [3]) was more than 100000 nM throughout.
`O=C(CCCN1CCN2CC3Nc4ccccc4C3CC2C1)c1ccc(F)cc1` (stereo not drawn): the Ki at D(2) dopamine receptor was 93.8 nM; in [3], 92.5 nM.
Take `O=C(CCCN1CCC(O)(c2ccc(Cl)cc2)CC1)c1ccc(F)cc1` [HALOPERIDOL]: the results for the ED50 with Rattus norvegicus [1] and in the series with Rattus norvegicus [6] were 0.1 mg/kg and 0.04 mg/kg, respectively.
For the compound `O=C(CCCN1CCN2Cc3[nH]c4ccccc4c3CC2C1)c1ccc(F)cc1` (stereo not drawn) [BIRIPERONE], the Ki on D(1A) dopamine receptor was 425 nM; at D(2) dopamine receptor it was 13.2 nM; in series [3], 24 nM. For the same compound, the ED50 in the series on Rattus norvegicus [1] stood at 0.09 mg/kg; in the series on Rattus norvegicus [2] it was 9.8 mg/kg; in the series with Mus musculus [4], 0.75 mg/kg; with Mus musculus [5], 1 mg/kg; with Rattus norvegicus [6] it was 0.04 mg/kg; in the series with Mus musculus [7], 2.55 mg/kg. The ED50 in the series on Rattus norvegicus [8] came out at 0.86 mg/kg. In addition, the Ratio in the series listed under Rattus norvegicus [9] is 9.5.
